{"source": "patent US6242462A", "about": "“Pharmacological agents” (Eli Lilly and Company, priority 2000, dated 2001)", "key": {"human GluR1 [1]": {"biological_target": "T1, human GluR1 (Homo sapiens, UniProt P42261)", "T1 construct": "expressed in transfected cells; host or cells: HEK293", "T1 sequence (P42261 19-906)": "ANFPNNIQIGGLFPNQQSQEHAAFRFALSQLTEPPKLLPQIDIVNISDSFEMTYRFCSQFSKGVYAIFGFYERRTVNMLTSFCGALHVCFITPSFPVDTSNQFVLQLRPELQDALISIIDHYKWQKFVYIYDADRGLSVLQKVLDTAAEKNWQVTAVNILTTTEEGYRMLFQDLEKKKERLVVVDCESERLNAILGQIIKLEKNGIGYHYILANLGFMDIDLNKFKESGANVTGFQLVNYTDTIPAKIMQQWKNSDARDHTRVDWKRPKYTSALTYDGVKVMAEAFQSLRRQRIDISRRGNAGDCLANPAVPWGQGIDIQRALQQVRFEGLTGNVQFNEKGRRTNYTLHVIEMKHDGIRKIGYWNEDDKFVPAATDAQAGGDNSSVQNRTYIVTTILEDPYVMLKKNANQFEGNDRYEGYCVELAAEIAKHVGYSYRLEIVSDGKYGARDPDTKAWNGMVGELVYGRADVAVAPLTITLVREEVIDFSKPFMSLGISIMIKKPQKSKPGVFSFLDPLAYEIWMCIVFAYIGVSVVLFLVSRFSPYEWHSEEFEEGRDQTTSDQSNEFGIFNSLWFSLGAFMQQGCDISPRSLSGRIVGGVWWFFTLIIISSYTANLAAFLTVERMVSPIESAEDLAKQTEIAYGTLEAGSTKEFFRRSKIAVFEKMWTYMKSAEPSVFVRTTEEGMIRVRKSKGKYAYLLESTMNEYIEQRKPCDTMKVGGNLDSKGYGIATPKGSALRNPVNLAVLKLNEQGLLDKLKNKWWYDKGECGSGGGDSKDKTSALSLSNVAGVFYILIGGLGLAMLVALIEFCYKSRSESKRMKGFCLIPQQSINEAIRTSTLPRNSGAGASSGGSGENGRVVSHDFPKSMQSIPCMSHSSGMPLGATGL", "test": "Binding: displacement of 3H AMPA on GluR1-expressing cells (Table 1)", "from_the_text": "(§1) The selectivity of compounds acting at GluR5 receptors may be determined by measurement of activity at other AMPA and kainate receptors including receptor-ligand binding studies and whole-cell voltage clamp electro-physiological recordings of functional activity at human GluR1, GluR2, GluR3 and GluR4 receptors (Fletcher et al., 1995, Recept. Channels 3; 21-31), receptor-ligand binding studies and whole-cell voltage clamp electrophysiological recordings of functional activity at human GluR6 receptors (Hoo et al., Recept. Channels 2; 327-338) and whole-cell voltage clamp electrophysiological recordings of functional activity at AMPA receptors in acutely isolated cerebellar Purkinje neurons (Bleakman et al., 1996, Mol. Pharmacol. 49; 581-585) and other tissues expressing AMPA receptors (Fletcher and Lodge, 1996, Phannacol. Ther. 70; 65-89).\n(§2) Cell lines (HEK293 cells) stably transfected with human GluR5 receptors were employed. Displacement of 3H AMPA by increasing concentrations of test compound was used on GluR1-4-expressing cells and 3H kainate (KA) on GluR5 and expressing cells. Estimated activity (Ki) in nM was as follows."}, "human GluR4 [2]": {"biological_target": "T2, human GluR4 (Homo sapiens, UniProt P48058)", "T2 construct": "expressed in transfected cells; host or cells: HEK293", "T2 sequence (P48058 21-902)": "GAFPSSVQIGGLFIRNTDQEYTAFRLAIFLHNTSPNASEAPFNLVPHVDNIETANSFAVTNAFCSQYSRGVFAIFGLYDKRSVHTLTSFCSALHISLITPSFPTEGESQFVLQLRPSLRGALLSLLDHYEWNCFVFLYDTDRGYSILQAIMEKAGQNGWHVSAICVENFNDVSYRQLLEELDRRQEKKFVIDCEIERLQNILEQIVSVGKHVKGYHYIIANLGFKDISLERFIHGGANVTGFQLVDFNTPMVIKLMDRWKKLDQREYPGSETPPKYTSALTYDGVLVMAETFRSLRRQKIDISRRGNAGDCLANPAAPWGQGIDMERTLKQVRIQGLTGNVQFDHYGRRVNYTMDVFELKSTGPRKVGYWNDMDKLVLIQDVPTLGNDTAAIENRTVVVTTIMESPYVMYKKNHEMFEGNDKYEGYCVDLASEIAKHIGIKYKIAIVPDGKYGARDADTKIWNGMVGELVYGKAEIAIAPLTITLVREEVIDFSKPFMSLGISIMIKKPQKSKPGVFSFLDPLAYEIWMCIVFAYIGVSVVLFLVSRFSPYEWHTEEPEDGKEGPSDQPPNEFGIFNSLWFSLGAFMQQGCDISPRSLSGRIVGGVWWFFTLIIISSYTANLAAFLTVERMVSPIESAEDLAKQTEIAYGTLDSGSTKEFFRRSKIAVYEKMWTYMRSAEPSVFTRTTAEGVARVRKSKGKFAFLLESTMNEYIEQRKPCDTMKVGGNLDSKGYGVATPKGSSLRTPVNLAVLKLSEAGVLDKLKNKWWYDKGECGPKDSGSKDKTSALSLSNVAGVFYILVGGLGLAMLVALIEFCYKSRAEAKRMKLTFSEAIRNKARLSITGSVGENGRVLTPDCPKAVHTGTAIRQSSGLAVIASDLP", "test": "Binding: displacement of 3H AMPA on GluR4-expressing cells (Table 1)", "from_the_text": "as §1, §2"}, "human GluR2 [3]": {"biological_target": "T3, human GluR2 (Homo sapiens, UniProt P42262)", "T3 construct": "expressed in transfected cells; host or cells: HEK293", "T3 sequence (P42262 25-883)": "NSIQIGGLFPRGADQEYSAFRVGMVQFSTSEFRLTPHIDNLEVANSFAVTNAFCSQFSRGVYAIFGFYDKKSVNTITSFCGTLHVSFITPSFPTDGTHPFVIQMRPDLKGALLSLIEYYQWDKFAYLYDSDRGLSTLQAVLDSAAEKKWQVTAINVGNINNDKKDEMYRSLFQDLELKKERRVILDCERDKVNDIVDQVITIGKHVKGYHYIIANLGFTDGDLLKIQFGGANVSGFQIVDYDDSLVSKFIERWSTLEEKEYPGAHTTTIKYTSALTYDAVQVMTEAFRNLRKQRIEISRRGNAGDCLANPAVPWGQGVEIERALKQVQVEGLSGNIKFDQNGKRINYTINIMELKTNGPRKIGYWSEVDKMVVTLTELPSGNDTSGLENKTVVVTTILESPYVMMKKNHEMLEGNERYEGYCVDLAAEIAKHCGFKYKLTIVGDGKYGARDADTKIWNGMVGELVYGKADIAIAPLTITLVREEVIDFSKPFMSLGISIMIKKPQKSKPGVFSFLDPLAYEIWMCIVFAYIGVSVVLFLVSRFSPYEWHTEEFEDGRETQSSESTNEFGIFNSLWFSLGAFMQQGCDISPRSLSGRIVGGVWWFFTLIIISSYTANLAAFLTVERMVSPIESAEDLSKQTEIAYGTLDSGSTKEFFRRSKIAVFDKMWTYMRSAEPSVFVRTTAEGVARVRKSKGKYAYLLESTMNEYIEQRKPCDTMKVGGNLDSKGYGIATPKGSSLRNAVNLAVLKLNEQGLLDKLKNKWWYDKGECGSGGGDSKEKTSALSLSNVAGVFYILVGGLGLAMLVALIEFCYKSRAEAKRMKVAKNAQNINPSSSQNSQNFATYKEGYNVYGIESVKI", "test": "Binding: displacement of 3H AMPA on GluR2-expressing cells (Table 1)", "from_the_text": "(§3) Cell lines (HEK293 cells) stably transfected with human GluR5 receptors were employed. Displacement of 3H AMPA by increasing concentrations of test compound was used on GluR1-4-expressing cells and 3H kainate (KA) on GluR5 and expressing cells."}, "human GluR3 [4]": {"biological_target": "T4, human GluR3 (Homo sapiens, UniProt P42263)", "T4 construct": "expressed in transfected cells; host or cells: HEK293", "T4 sequence (P42263 29-894)": "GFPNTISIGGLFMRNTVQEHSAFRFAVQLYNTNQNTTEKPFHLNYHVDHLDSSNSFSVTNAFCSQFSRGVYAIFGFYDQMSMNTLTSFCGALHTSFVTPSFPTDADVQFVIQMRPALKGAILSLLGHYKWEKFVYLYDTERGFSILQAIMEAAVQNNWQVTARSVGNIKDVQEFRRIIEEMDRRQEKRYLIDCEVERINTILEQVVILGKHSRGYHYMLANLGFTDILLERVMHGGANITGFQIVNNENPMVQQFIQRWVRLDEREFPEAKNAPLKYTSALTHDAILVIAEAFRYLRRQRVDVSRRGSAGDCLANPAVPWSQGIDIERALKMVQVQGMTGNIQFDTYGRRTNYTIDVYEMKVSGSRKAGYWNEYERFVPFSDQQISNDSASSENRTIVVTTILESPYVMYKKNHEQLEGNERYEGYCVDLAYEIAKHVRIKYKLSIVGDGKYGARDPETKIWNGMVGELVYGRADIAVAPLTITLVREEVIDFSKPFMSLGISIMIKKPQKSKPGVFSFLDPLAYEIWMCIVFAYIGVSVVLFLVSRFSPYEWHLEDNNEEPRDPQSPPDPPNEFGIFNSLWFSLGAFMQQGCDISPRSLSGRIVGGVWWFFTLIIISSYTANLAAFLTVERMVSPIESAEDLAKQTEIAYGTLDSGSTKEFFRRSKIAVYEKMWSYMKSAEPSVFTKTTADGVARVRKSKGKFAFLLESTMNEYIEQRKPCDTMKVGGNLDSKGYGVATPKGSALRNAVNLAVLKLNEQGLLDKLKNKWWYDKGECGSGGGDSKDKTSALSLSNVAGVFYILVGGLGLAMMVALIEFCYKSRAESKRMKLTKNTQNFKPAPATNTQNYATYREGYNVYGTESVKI", "test": "Binding: displacement of 3H AMPA on GluR3-expressing cells (Table 1)", "from_the_text": "as §1, §2"}, "human GluR6 [5]": {"biological_target": "T5, human GluR6 (Homo sapiens, UniProt Q13002)", "T5 construct": "expressed in transfected cells; host or cells: HEK293", "T5 sequence (Q13002 32-908)": "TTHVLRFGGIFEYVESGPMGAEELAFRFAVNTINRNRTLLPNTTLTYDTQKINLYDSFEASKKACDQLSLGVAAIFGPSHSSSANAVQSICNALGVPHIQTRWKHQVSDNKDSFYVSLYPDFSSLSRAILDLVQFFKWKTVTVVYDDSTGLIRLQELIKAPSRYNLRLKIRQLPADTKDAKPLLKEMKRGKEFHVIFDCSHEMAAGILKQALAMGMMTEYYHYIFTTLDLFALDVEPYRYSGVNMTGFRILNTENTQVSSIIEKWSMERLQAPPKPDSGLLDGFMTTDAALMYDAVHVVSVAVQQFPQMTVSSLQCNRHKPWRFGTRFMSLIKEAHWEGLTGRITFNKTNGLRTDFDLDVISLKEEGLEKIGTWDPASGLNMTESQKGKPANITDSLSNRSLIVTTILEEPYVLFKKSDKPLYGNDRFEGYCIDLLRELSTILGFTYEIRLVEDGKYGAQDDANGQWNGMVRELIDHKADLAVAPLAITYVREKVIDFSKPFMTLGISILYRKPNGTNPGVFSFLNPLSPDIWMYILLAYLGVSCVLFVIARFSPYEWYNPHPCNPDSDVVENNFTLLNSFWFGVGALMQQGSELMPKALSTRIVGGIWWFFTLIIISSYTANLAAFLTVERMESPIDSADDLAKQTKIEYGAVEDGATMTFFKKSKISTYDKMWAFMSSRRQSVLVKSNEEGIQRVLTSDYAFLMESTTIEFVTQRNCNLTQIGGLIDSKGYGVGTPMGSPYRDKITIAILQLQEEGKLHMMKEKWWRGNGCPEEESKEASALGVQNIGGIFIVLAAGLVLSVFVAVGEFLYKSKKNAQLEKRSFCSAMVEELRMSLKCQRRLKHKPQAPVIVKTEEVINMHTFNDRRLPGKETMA", "test": "Binding: displacement of radioligand (3H kainate) on GluR6 (Table 1)", "conditions": "read-out: % displ, GluR6", "from_the_text": "as §1, §2"}, "human GluR1 [6]": {"biological_target": "T1, human GluR1", "test": "Patch-clamp electrophysiology, HEK293 cells stably transfected with human GluR1, vs 100 μM AMPA (Table 2)", "format": "cell-based", "from_the_text": "as §1\n(§4) Functional studies were carried out on HEK293 cells stably transfected with human GluR receptors and on acutely isolated dorsal root ganglion neurons (DRG) using patch-clamp technology (Bleakman et al., 1996, Mol. Pharmacol., 49, 581-585). IC50 values (μM) for test Compound A were estimated for GluR1-4 vs 100 μM AMPA and GluR5 and GluR6 vs 100 μM KA with the following results: […]"}, "human GluR2 [7]": {"biological_target": "T3, human GluR2", "test": "Patch-clamp electrophysiology, HEK293 cells stably transfected with human GluR2, vs 100 μM AMPA (Table 2)", "format": "cell-based", "from_the_text": "as §1, §4"}, "human GluR3 [8]": {"biological_target": "T4, human GluR3", "test": "Patch-clamp electrophysiology, HEK293 cells stably transfected with human GluR3, vs 100 μM AMPA (Table 2)", "format": "cell-based", "from_the_text": "as §1, §4"}, "human GluR4 [9]": {"biological_target": "T2, human GluR4", "test": "Patch-clamp electrophysiology, HEK293 cells stably transfected with human GluR4, vs 100 μM AMPA (Table 2)", "format": "cell-based", "from_the_text": "as §1, §4"}, "human GluR6 [10]": {"biological_target": "T5, human GluR6", "test": "Patch-clamp electrophysiology, HEK293 cells stably transfected with human GluR6, vs 100 μM KA (Table 2)", "format": "cell-based", "from_the_text": "as §1, §4"}, "[11]": {"tested_on": "acutely isolated dorsal root ganglion neurons (DRG)", "test": "Patch-clamp electrophysiology, kainate induced current in acutely isolated dorsal root ganglion neurons (Table 2)", "format": "cell-based", "conditions": "Rattus norvegicus, DRG neuron, based on % inhibition of 30 μM kainate induced current", "from_the_text": "(§5) GluR5 receptor antagonists may be identified by radiolabelled ligand binding studies at the cloned and expressed human GluR5 receptor (Korczak et al., 1994, Recept. Channels 3; 41-49), by whole cell voltage clamp electro-physiological recordings of functional activity at the human GluR5 receptor (Korczak et al., 1994, Recept. Channels 3; 41-49) and by whole cell voltage clamp electro-physiological recordings of currents in acutely isolated rat dorsal root ganglion neurons (Bleakman et al., 1996, Mol. Pharmacol. 49; 581-585).\nFunctional studies were carried out on HEK293 cells stably transfected with human GluR receptors and on acutely isolated dorsal root ganglion neurons (DRG) using patch-clamp technology (Bleakman et al., 1996, Mol. Pharmacol., 49, 581-585). IC50 values (μM) for test Compound A were estimated for GluR1-4 vs 100 μM AMPA and GluR5 and GluR6 vs 100 μM KA with the following results:\n*Based on % inhibition of 30 μM kainate induced current."}, "human GluR5 [12]": {"biological_target": "T6, human GluR5 (Homo sapiens, UniProt P39086)", "test": "Selectivity at GluR5 over other ionotropic glutamate receptors (binding and electrophysiology)", "conditions": "GluR5 vs other ionotropic glutamate receptors"}, "human GluR5 [13]": {"biological_target": "T6, human GluR5", "test": "Binding: displacement of 3H kainate on GluR5-expressing HEK293 cells (Table 1)", "set-up": "expressed in transfected cells; host or cells: HEK293", "from_the_text": "as §3"}, "human GluR5 [14]": {"biological_target": "T6, human GluR5", "test": "Patch-clamp electrophysiology, HEK293 cells stably transfected with human GluR5, vs 100 μM KA (Table 2)", "format": "cell-based", "set-up": "expressed in transfected cells; host or cells: HEK293", "from_the_text": "as §5, §4"}, "tail flick response [15]": {"tested_on": "tail flick response", "test": "Tail Flick Test in mice", "format": "in vivo", "conditions": "subcutaneous, 3, 10, and 30 mg/kg", "procedure": "(§6) This well known test measures the effect of a test compound on the time taken for an animal to flick its tail out of a focused beam of light. In the test, a beam of light from a lamp is focused on a surface, and the lamp is then switched off. Treated and untreated (control) animals are restrained, with their tails positioned at the focal point of the beam of light from the lamp. The lamp is then switched on, and the time taken for the animal's tail to respond by moving is recorded."}, "tail flick response [16]": {"tested_on": "tail flick response", "test": "Tail Flick Test in cynomolgous primates", "format": "in vivo", "conditions": "oral, 0.03, 0.1, 0.3 and 3 mg/kg", "procedure": "as §6"}, "[17]": {"tested_on": "acetic acid induced writhing", "test": "Acetic acid induced mouse writhing test", "format": "in vivo, male CD-1 mice", "conditions": "mice; 1, 3, 10 and 30 mg/kg; 0.5% acetic acid i.p.", "procedure": "3) Acetic acid induced mouse writhing test.\nThis test measures the ability of a test compound to reduce the amount of writhing induced by intraperitoneal injection of acetic acid in mice.\nDoses of test compound or control are administered to male CD-1 mice. Each animal is then administered 0.5% acetic acid in a volume of […] intraperitoneally. The animals are then placed in individual plexiglas observation chambers and the total number of writhes (flattening of the abdominal wall and asymmetric stretching and extending of the body and hindlimbs) recorded between 5 and 10 minutes after acetic acid administration."}, "pain": {"tested_on": "pain", "test": "Animal models of pain", "conditions": "in vivo"}}}
{"smiles": "O=C(O)c1ccc(C[C@H]2CC[C@H]3CN[C@H](C(=O)O)C[C@H]3C2)cc1", "note": "(relative stereo) [C, 3SR, 4aRS, 6SR, 8aRS-6-(((4-carboxy)phenyl)methyl)-1,2,3-4,4a,5,6,7,8,8a-decahydroisoquinoline-3-carboxylic acid]", "values": [{"measurement": "inhibition at 1000 µM", "setting": "human GluR1 [1]; at 1 mM, 3H AMPA", "value": 21, "unit": "%"}, {"measurement": "inhibition at 1000 µM", "setting": "human GluR4 [2]; at 1 mM, 3H AMPA", "value": 23, "unit": "%"}]}
{"smiles": "O=C(O)[C@@H]1C[C@H]2C[C@@H](COCc3nn[nH]n3)CC[C@H]2CN1", "note": "(relative stereo) [Compound A, 3SR, 4aRS, 6SR, 8aRS-6-[(1(2)H-tetrazol-5-yl)methoxy-methyl]decahydroisoquinoline-3-carboxylic acid]", "values": [{"measurement": "Estimated activity (Ki), GluR1", "setting": "human GluR1 [1]; displacement of 3H AMPA", "value": 150.686, "unit": "µM"}, {"measurement": "Estimated activity (Ki), GluR2", "setting": "human GluR2 [3]", "value": 35.337, "unit": "µM"}, {"measurement": "Estimated activity (Ki), GluR3", "setting": "human GluR3 [4]", "value": 47.793, "unit": "µM"}, {"measurement": "Estimated activity (Ki), GluR4", "setting": "human GluR4 [2]; displacement of 3H AMPA", "value": 31.606, "unit": "µM"}, {"measurement": "inhibition at 100 µM", "setting": "human GluR6 [5]", "value": 6, "unit": "%"}, {"measurement": "IC50", "setting": "human GluR1 [6]", "value": "> 100", "unit": "µM"}, {"measurement": "IC50", "setting": "human GluR2 [7]", "value": "> 100", "unit": "µM"}, {"measurement": "IC50", "setting": "human GluR3 [8]", "value": "> 100", "unit": "µM"}, {"measurement": "IC50", "setting": "human GluR4 [9]", "value": "> 100", "unit": "µM"}, {"measurement": "IC50", "setting": "human GluR6 [10]", "value": "> 100", "unit": "µM"}, {"measurement": "IC50", "setting": "[11]", "value": 0.6, "unit": "µM"}, {"measurement": "selective GluR5 receptor antagonism", "setting": "human GluR5 [12]", "value": "selective GluR5 receptor antagonists"}, {"measurement": "Estimated activity (Ki), GluR5", "setting": "human GluR5 [13]", "value": 3.061, "unit": "µM"}, {"measurement": "IC50", "setting": "human GluR5 [14]", "value": "3.9 ± 0.5", "unit": "µM"}]}
{"smiles": "O=C(O)[C@@H]1C[C@H]2C[C@@H](COCc3nn[nH]n3)CC[C@H]2CN1", "note": "[B, 3S,4aR,6S,8aR-6-((((1H-Tetrazole-5-yl)methyl)oxy)methyl)-1,2,3,4,4a,5,6,7,8,8a-decahydroisoquinoline-3-carboxylic Acid]", "values": [{"measurement": "response time (tail flick)", "setting": "tail flick response [15]", "value": "dose dependent increase in response time"}, {"measurement": "response time (tail flick)", "setting": "tail flick response [16]", "value": "dose dependent increase in response time"}, {"measurement": "writhing", "setting": "[17]", "value": "dose dependent reduction in writhing"}, {"measurement": "selective GluR5 receptor antagonism", "setting": "human GluR5 [12]", "value": "selective GluR5 receptor antagonists"}, {"measurement": "selective GluR5 receptor antagonism", "setting": "human GluR5 [12]; listed as (3S,4aR,6S,8aR)-6-[(1(2)H-tetrazol-5-yl)methoxymethyl]decahydroisoquinoline-3-ca", "value": "selective GluR5 antagonist"}, {"measurement": "selective GluR5 receptor antagonism", "setting": "human GluR5 [12]; listed as Example 1", "value": "selective GluR5 antagonist"}, {"measurement": "effectiveness in animal models of pain", "setting": "pain", "value": "effective in animal models of pain"}, {"measurement": "Estimated activity (Ki), GluR5", "setting": "human GluR5 [13]", "value": 5.823, "unit": "µM"}]}
{"smiles": "O=C(O)c1ccc(C[C@H]2CC[C@H]3CN[C@H](C(=O)O)C[C@H]3C2)cc1", "note": "[D, 3S,4aR,6S,8aR-6-(((4-carboxy)phenyl)methyl)-1,2,3,4,4a,5,6,7,8,8a-decahydroisoquinoline-3-carboxylic acid]", "values": [{"measurement": "IC50", "setting": "human GluR4 [9]", "value": "> 100", "unit": "µM"}, {"measurement": "IC50", "setting": "human GluR6 [10]", "value": "> 100", "unit": "µM"}, {"measurement": "IC50", "setting": "[11]", "value": 0.98, "unit": "µM"}]}
